In patent US20030086900A1, “Method of treatment using ligand-immunogen conjugates” (priority 2001, published 2003):

Tested on: M109 cells
Assay: Survival of mice with M109 lung tumor implants, folate-MDP therapy
Assay type: in vivo
Conditions: female Balb/c mice, M109 cells i.p.; folate-MDP 15 nmoles/kg, IL-2 5,000 IU/dose, IFN-α 25,000 U/dose; injections on days 7, 8, 9, 11, 14
Protocol: Female Balb/c mice were injected on day 0 with 5×10^5 M109 cells, a syngeneic lung cancer cell line that expresses high levels of the folate receptor. In an effort to reduce the time required to obtain long-term survival data, the tumor cells were implanted intraperitoneally close to the liver. Cancer loci were then allowed to attach and grow. The animals were then injected with PBS (control) or were co-injected with folate-muramyl dipeptide (MDP) (15 nmoles/kg), IL-2 (5,000 IU/dose), and IFN-α (25,000 U/dose) on days 7, 8, 9, 11, and 14 after tumor cell implantation. Folate was conjugated to MDP via a gamma carboxyl-linked ethylene diamine bridge. Additional animals were injected with 80 nmoles/kg MDP, 15 nmoles/kg folate-MDP, or 80 nmoles/kg MDP and IL-2 and IFN-α at the concentrations specified above. The efficacy of this immunotherapy was evaluated by monitoring survival as a function of time of folate-MDP treated mice compared to control animals.

folate-muramyl dipeptide [folate-MDP]
effect on long-term survival of tumor-bearing mice: negligible effect
